Measured values taken from patent publication US7059206B1 (priority 1999, dated 2006).
Like-named read-outs stand apart in the source and are kept apart here.

How the values were obtained:
[1] = cited from earlier work
[2] = Uptake by prototype passive sampler at constant exposure concentration over time; conditions: polyethylene device
Method: In each experiment, the prototype device was tested fitted with both the polyethylene and the polysulphone membrane.
Accumulation of organic analytes by a passive sampling system fitted with a C18 Empore™ disk as receiving phase and either a […] pore size polysulphone membrane or a polyethylene membrane as a diffusion-limiting membrane material. Accumulation was measured following exposure of the system to an aqueous solution of analytes at constant concentration, stirring speed (140 rpm) and temperature (11° C.). Linear regressions of the accumulation factor, AF, (ml/device) on time were plotted and are given with the […] (R^2) in table 7. AF=mass of analytes in the tested compartment (ng/device)/mean concentration of the analyte in the aqueous phase during deployment (ng/ml).
The pattern of uptake in each case is linear with time over deployment periods ranging from several hours to 9 days. R^2 values in each case are above 0.9. Linear regressions plotted through the data points show the lag time between exposure of the device to an aqueous solution of each analyte and its uptake into the receiving phase of the passive sampling system. In effect this is a measurement of the response time of a particular prototype passive sampling system to a particular compound.

[3] = Cadmium uptake by passive sampler, effect of pH and of permselective membrane
Excerpt: Further evidence for the permselective function of the membrane during diffusion is illustrated by studying the effect of pH on metal uptake by the passive sampler, in this case Cd. […] Cadmium was initially added to a carefully-controlled water system in the laboratory into which the sampler was placed. Samples of water were taken over a period of 10 days.
Further evidence of the interaction of metal with the permselective membrane is that uptake to a naked disk is much more rapid. The uptake rate constant (k) for Cd is 1.6×10^9 min^−1 for the naked disk and 0.21×10^9 min^−1 for the permselective membrane.

CN(C)C(=O)Nc1ccc(Cl)c(Cl)c1 [Diuron]
Solubility in water ([1]; at 25° C.): 42 mgl^−1

Clc1ccc(Cl)c(-c2cc(Cl)ccc2Cl)c1 [PCB 52]
lag phase between exposure and uptake into the C18 receiving phase [2]: only a small lag phase | Solubility in water ([1]; temperature not given): 0.03 mgl^−1

[Cd] [Cadmium]
uptake rate constant (k) ([3]; naked disk): 1.6e+09 min⁻¹ | uptake rate constant (k) ([3]; permselective membrane (Nafion-coated cellulose acetate)): 2.1e+08 min⁻¹

Clc1cc(Cl)c(-c2cc(Cl)c(Cl)cc2Cl)cc1Cl [PCB 153]
lag phase between exposure and uptake into the C18 receiving phase [2]: a more significant lag phase | Solubility in water ([1]; temperature not given): 0.00105 mgl^−1

ClC1=C(Cl)[C@]2(Cl)[C@@H]3[C@@H]4C[C@@H]([C@H]5O[C@@H]45)[C@@H]3[C@@]1(Cl)C2(Cl)Cl [Dieldrin]
lag phase between exposure and uptake into the C18 receiving phase [2]: a more significant lag phase | Solubility in water ([1]; at 25° C.): 0.186 mgl^−1

c1ccc2c(c1)ccc1ccccc12 [Phenanthrene]
lag phase between exposure and uptake into the C18 receiving phase [2]: only a small lag phase
